Assay results: article PMC7118210 (Frontiers in Pharmacology, 2020)

What was measured:
[1] = target: T1, CYP 2C9 (Homo sapiens, UniProt P11712); test: CYP enzyme pathway, human liver microsomes with sulfaphenazole (system III-human); type: in vitro ADME; conditions: CYP2C9, major metabolic enzyme; of six metabolites measured in system III-human
T1 construct: human liver microsomes (2.25 μl); tissue RILD Research Institute for Live Diseases (Shanghai, China) Co.Ltd; host or cells: human liver microsomes, 10-donor pooled
Description: (§1) Five single inhibitor working solutions were separately added. Their concentrations were as follows: α-naphthoflavone (0.04 mM) for CYP 1A2, sulfaphenazole (0.8 mM) for CYP 2C9, (+/-)-N-3-benzylnirvanol (0.8 mM) for CYP 2C19, quinidine (0.08 mM) for CYP 2D6, and ketoconazole (0.04 mM) for CYP 3A4/5. All protein concentrations were 0.15 mg ml^-1 in the incubation system, except 0.3 mg ml^-1 for the sulfaphenazole working solution. Then, NADPH (10 mM, 30 μl) was added and the mixed solution incubated for 45 min. Finally, cold acetonitrile (600 μl, containing 100 ng ml^-1 flufenamic acid) was added to every tube, mixed by vortexing, centrifuged for 30 min at 14,000 g and 4°C, and the supernatants transferred into centrifuge tubes and injected into the UHPLC/MS/MS system as described above. Incubations were run in triplicate experiments.
(§2) To analyze compounds in incubation system III-human, a Luna C18 column (Phenomenex Inc., Torrance, CA, USA; 2.0 mm × 50 mm, 5 μm) was used at 40°C. The mobile phase consisted of 0.1% formic acid (v/v) in water (A) and 0.1% formic acid in acetonitrile (B). […] The injection volume was 10 μl with flow rate of 0.2 ml min^-1. The compounds were detected by multiple reaction monitoring in the negative ion electrospray mode.

[2] = target: T2, CYP 2D6 (Homo sapiens, UniProt P10635); test: CYP enzyme pathway, human liver microsomes with quinidine (system III-human); type: in vitro ADME; conditions: CYP2D6; of six metabolites measured in system III-human
T2 construct: human liver microsomes (2.25 μl); tissue RILD Research Institute for Live Diseases (Shanghai, China) Co.Ltd; host or cells: human liver microsomes, 10-donor pooled
Description: as §1, §2

[3] = target: T3, CYP 1A2 (Homo sapiens, UniProt P05177); test: CYP enzyme pathway, human liver microsomes with α-naphthoflavone (system III-human); type: in vitro ADME; conditions: CYP1A2; of six metabolites measured in system III-human
T3 construct: human liver microsomes (2.25 μl); tissue RILD Research Institute for Live Diseases (Shanghai, China) Co.Ltd; host or cells: human liver microsomes, 10-donor pooled
Description: as §1, §2

[4] = test system: CYP 3A4/5; test: CYP enzyme pathway, human liver microsomes with ketoconazole (system III-human); type: in vitro ADME; conditions: CYP3A4/5; of six metabolites measured in system III-human
Description: as §1, §2

[5] = target: T4, CYP 2C19 (Homo sapiens, UniProt P33261); test: CYP enzyme pathway, human liver microsomes with (+/-)-N-3-benzylnirvanol (system III-human); type: in vitro ADME; conditions: CYP2C19; of six metabolites measured in system III-human
T4 construct: human liver microsomes (2.25 μl); tissue RILD Research Institute for Live Diseases (Shanghai, China) Co.Ltd; host or cells: human liver microsomes, 10-donor pooled
Description: as §1, §2

[6] = set-up: method as in Liu M. et al., 2011; Li et al., 2014; conditions: Sprague-Dawley rats, 1,250 mg kg^-1 day^-1 for 184 days; ref Liu M. et al., 2011; Li et al., 2014; cited from earlier work
[7] = Metabolites in rat liver microsomes (systems I-rat, II-rat); type: in vitro ADME, Sprague-Dawley rat
Description: (§3) Then, NADPH-B (10 μl) was added and incubated for 2 h. […] Then, UDPGA (50 μl) was added and incubated for 2 h. […] Then, UDPGA (50 μl) was added and incubated for 2 h. In addition, the naringenin solution (1 mM, 10 μl) was evaluated in rat systems I, II, and III as above.
(§4) The incubated solution (500 μl) of systems I-rat, II-rat, III-rat, I-human, and II-human were extracted with ethyl acetate (500 μl) for at least 3 min by vortexing and centrifuged for 10 min at 13,000 rpm and 4°C. The extraction process described above was performed twice and all supernatants were transferred into centrifuge tubes, dried with N2, and dissolved with methanol-water (1:1, v/v). All samples were injected into a UPLC/Q-TOF-MS system consisting of a Waters Acquity ultra performance liquid chromatography (UPLC) coupled with a Micromass micro™ quadrupole time-of-flight mass spectrometry (Q-TOF-MS) system (Waters Corp., Milford, MA, USA), equipped with an electrospray ionization source, and controlled by the MassLynx (v. 4.1) software. Separation was performed on a Waters Acquity UPLC BEH C18 column (50 mm × 2.1 mm, 1.7 μm) at 40°C. The mobile phase consisted of 0.1% formic acid (v/v) in water (A) and methanol (B) using a linear gradient of 95% to 60% A (0–25 min), 60% to 40% A (25–35 min), 40% to 10% A (35–40 min), 10% A (40–43 min), 10% to 95% A (43–44 min), and 95% A (44–45 min). The injection volume was 5 μl with flow rate of 0.2 ml min^-1. The Q-TOF-MS worked in a full scan mode (100–1,200 m/z), selection ion mode, and product ion mode, in negative ion mode, respectively. The conditions were as follows: capillary voltage 3,000 V, sample cone voltage 30 V, extraction cone voltage 2.0 V, source temperature 100°C, desolvation temperature 350°C, cone gas (N2) flow rate of 40 L/h, desolvation gas (N2) flow rate of 700 L/h, low collision energy 6.0 eV, and high collision energy 20–80 eV. Compounds were detected with accurate mass using leucine enkephalin for mass correction at 554.2615 (m/z) in negative ionization mode.

[8] = Metabolites in human liver microsomes (systems I-human, II-human); type: in vitro ADME
Description: Then, NADPH-B (10 μl) was added and the mixed solution incubated for 2 h. […] Next, UDPGA (50 μl) was added and the mixed solution incubated for 2 h. In addition, the naringenin solution (1 mM, 10 μl) was evaluated in human systems I and II as above.
as §4

[9] = Metabolites in rat kidney microsomes (system III-rat); type: in vitro ADME, Sprague-Dawley rat
Description: as §3
The incubated solution (500 μl) of systems I-rat, II-rat, III-rat, I-human, and II-human were extracted with ethyl acetate (500 μl) for at least 3 min by vortexing and centrifuged for 10 min at 13,000 rpm and 4°C. The extraction process described above was performed twice and all supernatants were transferred into centrifuge tubes, dried with N2, and dissolved with methanol-water (1:1, v/v). All samples were injected into a UPLC/Q-TOF-MS system consisting of a Waters Acquity ultra performance liquid chromatography (UPLC) coupled with a Micromass micro™ quadrupole time-of-flight mass spectrometry (Q-TOF-MS) system (Waters Corp., Milford, MA, USA), equipped with an electrospray ionization source, and controlled by the MassLynx (v. 4.1) software. Separation was performed on a Waters Acquity UPLC BEH C18 column (50 mm × 2.1 mm, 1.7 μm) at 40°C. […] Compounds were detected with accurate mass using leucine enkephalin for mass correction at 554.2615 (m/z) in negative ionization mode.

[10] = Stability of naringin and naringenin in human feces with active enzymes; type: in vitro ADME; conditions: human feces in normal saline, 37°C for 12 h (over night)
Description: Next, 9-fold normal saline, instead of ninefold methanol-normal saline (2:1, v/v), was added to maintain enzyme activity in the feces. […] These samples were maintained at 37°C for 12 h.

T3 sequence (P05177 whole entry): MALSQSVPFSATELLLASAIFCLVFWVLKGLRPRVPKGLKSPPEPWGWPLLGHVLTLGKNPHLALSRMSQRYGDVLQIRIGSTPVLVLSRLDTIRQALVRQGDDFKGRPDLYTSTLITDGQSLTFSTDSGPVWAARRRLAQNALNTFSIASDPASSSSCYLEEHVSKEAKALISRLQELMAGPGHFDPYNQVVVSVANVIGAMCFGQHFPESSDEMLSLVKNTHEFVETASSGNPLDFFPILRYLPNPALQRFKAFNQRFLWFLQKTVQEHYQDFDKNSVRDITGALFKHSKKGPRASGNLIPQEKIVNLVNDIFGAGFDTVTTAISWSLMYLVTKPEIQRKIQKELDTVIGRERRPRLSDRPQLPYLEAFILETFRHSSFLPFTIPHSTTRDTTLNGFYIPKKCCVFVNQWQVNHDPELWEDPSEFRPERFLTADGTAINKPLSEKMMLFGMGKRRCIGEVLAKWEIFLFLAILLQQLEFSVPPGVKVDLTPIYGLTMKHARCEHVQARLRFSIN
T2 sequence (P10635 whole entry): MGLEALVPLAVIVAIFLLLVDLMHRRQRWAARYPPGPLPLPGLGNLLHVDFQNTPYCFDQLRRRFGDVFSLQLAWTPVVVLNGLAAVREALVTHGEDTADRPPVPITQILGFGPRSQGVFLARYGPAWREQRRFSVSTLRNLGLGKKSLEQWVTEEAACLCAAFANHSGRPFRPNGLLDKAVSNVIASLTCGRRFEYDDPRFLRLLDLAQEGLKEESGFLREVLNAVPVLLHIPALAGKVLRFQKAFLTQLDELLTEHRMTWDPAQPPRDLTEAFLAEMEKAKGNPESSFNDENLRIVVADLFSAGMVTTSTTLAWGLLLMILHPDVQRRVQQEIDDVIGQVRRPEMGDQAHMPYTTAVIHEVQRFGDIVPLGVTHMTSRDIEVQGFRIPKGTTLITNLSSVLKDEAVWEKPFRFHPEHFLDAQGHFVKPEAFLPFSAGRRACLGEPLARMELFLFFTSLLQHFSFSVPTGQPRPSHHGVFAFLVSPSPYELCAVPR
T1 sequence (P11712 whole entry): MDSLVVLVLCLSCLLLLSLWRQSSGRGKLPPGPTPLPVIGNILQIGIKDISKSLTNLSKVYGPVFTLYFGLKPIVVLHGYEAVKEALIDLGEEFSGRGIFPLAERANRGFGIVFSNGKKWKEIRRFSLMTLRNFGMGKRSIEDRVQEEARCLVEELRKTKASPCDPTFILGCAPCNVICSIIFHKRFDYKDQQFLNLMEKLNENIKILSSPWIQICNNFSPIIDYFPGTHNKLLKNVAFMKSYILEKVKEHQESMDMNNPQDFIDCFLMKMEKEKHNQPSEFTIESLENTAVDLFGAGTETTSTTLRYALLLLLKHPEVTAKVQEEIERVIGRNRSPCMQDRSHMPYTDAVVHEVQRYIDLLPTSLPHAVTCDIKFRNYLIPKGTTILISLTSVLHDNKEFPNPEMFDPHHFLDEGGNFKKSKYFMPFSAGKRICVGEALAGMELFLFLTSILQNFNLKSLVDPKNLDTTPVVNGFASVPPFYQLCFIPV
T4 sequence (P33261 whole entry): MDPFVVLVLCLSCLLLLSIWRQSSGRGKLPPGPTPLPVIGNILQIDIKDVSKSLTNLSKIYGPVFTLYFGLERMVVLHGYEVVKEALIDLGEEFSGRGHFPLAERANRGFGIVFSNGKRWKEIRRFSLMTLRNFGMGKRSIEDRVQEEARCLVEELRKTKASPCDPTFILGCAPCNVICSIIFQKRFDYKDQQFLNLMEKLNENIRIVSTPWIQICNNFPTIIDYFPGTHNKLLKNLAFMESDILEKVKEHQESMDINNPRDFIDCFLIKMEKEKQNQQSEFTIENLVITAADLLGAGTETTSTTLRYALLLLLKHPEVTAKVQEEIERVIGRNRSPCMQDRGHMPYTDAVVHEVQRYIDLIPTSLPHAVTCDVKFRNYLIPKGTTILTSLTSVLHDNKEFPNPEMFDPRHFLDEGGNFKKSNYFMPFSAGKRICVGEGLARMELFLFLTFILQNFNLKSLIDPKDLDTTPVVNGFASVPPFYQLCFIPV

| SMILES | metabolites the enzyme is responsible for [1] | metabolites the enzyme contributes to [2] | metabolites the enzyme contributes to [3] | metabolites the enzyme contributes to [4] | metabolites the enzyme contributes to [5] | adverse effects in toxicity study [6] | found in rat liver microsomes, incubation of naringenin (S) [7] | found in human liver microsomes, incubation of naringenin (S) [8] | found in rat kidney microsomes, incubation of G/S [9] | amount detected in feces relative to the amount added [10] |
| --- | --- | --- | --- | --- | --- | --- | --- | --- | --- | --- |
| C[C@@H]1O[C@@H](O[C@H]2[C@H](Oc3cc(O)c4c(c3)O[C@H](c3ccc(O)cc3)CC4=O)O[C@H](CO)[C@@H](O)[C@@H]2O)[C@H](O)[C@H](O)[C@H]1O [naringin, Naringin] | six metabolites | three metabolites | one metabolite | two metabolites | four metabolites | no adverse effects | – | – | – | – |
| O=C1C[C@@H](c2ccc(O)cc2)Oc2cc(O)cc(O)c21 [naringenin, Naringenin] | – | – | – | – | – | – | + | + | + | less than 20% |
